The source of these data is US8568994B2, “Method for prenatal diagnosis” (DKFZ Deutsches Krebsforschungszentrum, Stiftung des …, priority 2007, dated 2013).

For the assay, the system named is Differentiated HPC cells. Put plainly: Regulated exosomal secretion in human podocytes (Western blot of secreted vesicles for CD24, HSP70, Annexin-1). The assay is classed as cell-based. The following applies: MCD 10 μg/ml or 10 mM for 2 hr. As to the method: Cultured HPC (differentiated) were treated with ionomycin (1 μM), MCD (10 mM) or cis-platin (15 μM) for 2 hr. Secreted membrane vesicles were harvested and cells were lysed in lysis buffer. Lysates and isolated vesicles were analyzed by SDS-PAGE followed by Western blot analysis with the indicated antibodies to CD24 and the exosomal marker proteins HSP70 and Annexin-1. Note the low level of constitutive vesicle secretion that is augmented by MCD.
Differentiated HPC cells were treated with ionomycin ([…]), MCD (10 μg/ml) or cisplatin (1 μg/ml) and analyzed the amount of exosomes released.
Human conditionally immortalized podocytes (HPC) were isolated and cultivated as previously described (31). Cells were grown in flasks either at the permissive temperature of 32° C. (in 5% CO2) to promote cell propagation as a cobblestone phenotype (undifferentiated) or at the nonpermissive temperature of 37° C. (in 5% CO2) to inactivate the SV40 T antigen and to allow the cells to differentiate. Prior to stimulation, cells were incubated for 16 h in RPMI 1640 medium, supplemented with 0.1 mg/ml of fatty acid-free bovine serum albumin. HK-2 human proximal tubular epithelial cells were obtained from American Type Culture Collection (ATCC, USA). Human mesangial cells (HMC) were kindly provided by Prof. Dr. Radeke (Depart. of Pharmacology, University of Frankfurt). […]

Turning to methyl-beta-cyclodextrin [MCD], the “release of CD24 containing exosomes” value is “significantly augmented the release of CD24 containing exosomes”.
